From PubChem BioAssay (NCI)
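Each compound was tested at five concentrations against cells in 96-well plates for 48 hours. At the TGI there is no net growth.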

Experiments:
Assay in all cases: DTP human tumour cell line panel, 48 h
M19-MEL melanoma = tested on: M19-MEL melanoma
SNB-78 CNS = tested on: SNB-78 CNS
KM20L2 colon = tested on: KM20L2 colon
HOP-18 NSCLC = tested on: HOP-18 NSCLC
RXF-631 renal = tested on: RXF-631 renal

Compound | TGI (M19-MEL melanoma) | TGI (SNB-78 CNS) | TGI (KM20L2 colon) | TGI (HOP-18 NSCLC) | TGI (RXF-631 renal)
NC(CCC(=O)NC(CSC(=O)N(O)c1ccccc1)C(=O)NCC(=O)O)C(=O)O (configuration not stated) | > 1000 µM | > 1000 µM | > 1000 µM |  | 
CN(C)CC1CCCC(CN(C)C)C1=NOC(=O)c1ccccc1 (configuration not stated) | > 100 µM | > 100 µM | > 100 µM | > 100 µM | 
Nc1ccc(S(=O)(=O)Nc2ccc(Nc3c4ccccc4nc4ccccc34)cc2)cc1 | 21.1 µM | 26.2 µM | 10.6 µM | 16.1 µM | 10.8 µM
CC(O)c1ccc[n+](Cc2ccccc2)c1 (configuration not stated) | > 400 µM |  | > 400 µM | > 400 µM | > 400 µM
CSc1sc(=S)sc1C(=O)N(C)c1ccccc1 | > 100 µM | > 100 µM | > 100 µM |  | 
Cn1c(Cl)cn2c3nc4ccccc4nc3c(=O)c(C#N)c12 | > 100 µM | > 100 µM |  | > 100 µM | 
CCCCCCCCCCCCCCCCOCC(CP(=O)([O-])OCC[n+]1ccccc1)OC (configuration not stated) | 25.2 µM | 31.1 µM |  |  | 28.9 µM
Nc1nc2n[nH]nc2c(=O)[nH]1 |  | > 100 µM | > 100 µM | 85.3 µM | 
CC(C)C(Sc1nc(-c2ccccc2)c(-c2ccccc2)[nH]1)C(=O)NN (configuration not stated) | > 100 µM | > 100 µM | > 100 µM |  | 
COC(=O)NC12CC3CC(CC(F)(C3)C1)C2 | > 100 µM | > 100 µM | > 100 µM |  | > 100 µM
CC(=O)C(CN(Cc1ccccc1)Cc1ccccc1)C(c1ccccc1)c1c(O)c2ccccc2oc1=O (configuration not stated) | > 100 µM | > 100 µM | > 100 µM |  | > 100 µM
O=C(O)CCc1cccc2c1oc1c(CCC(=O)O)cccc12 | > 100 µM | > 100 µM | > 100 µM | > 100 µM | 
N#CCCN(c1ccc(C=Nc2ccccc2Cl)cc1)S(=O)(=O)c1ccccc1 | > 100 µM | > 100 µM | > 100 µM | > 100 µM | > 100 µM
COc1ccc(N2C(=O)C3c4[nH]c5ccccc5c4C4CC(C)CC(C)C4C3C2=O)cc1 (configuration not stated) | > 100 µM | > 100 µM | > 100 µM | > 100 µM | 
